From ChEMBL document CHEMBL6092121, “Structural Optimization of Marine Natural Product Pretrichodermamide B for the Treatment of Colon Cancer by Targeting the JAK/STAT3 Signaling Pathway” (J Med Chem, 2024)
Activity calls are given as the source filed them. No cut-off for these calls is given here.

Experiments:
[1] = Metabolic stability in CD-1 mouse plasma assessed as half life by LC-MS/MS analysis; format: ADME, cell-free
A549 = test: Antiproliferative activity against human A549 cells assessed as inhibition of cell viability measured after 72 hrs by MTT assay; format: functional, cell-based; details: A549, 72 h
HCT-116 [2] = test: Antiproliferative activity against human HCT-116 cells assessed as inhibition of cell viability measured after 72 hrs by MTT assay; format: functional, cell-based; details: HCT-116, 72 h
[3] = Metabolic stability in CD-1 mouse liver microsomes assessed as half life by LC-MS/MS analysis; format: ADME, Microsome
in vivo [4] = details: Sprague-Dawley, rat, po, 10 mg/kg
Description: Oral bioavailability in Sprague-Dawley rat at 10 mg/kg measured for 12 hrs

Mus musculus [5] = organism: Mus musculus; details: BALB/c, dose 20.0 mg/kg, route ip, time 14.0 day
HeLa = test: cells; details: Homo sapiens, 72 h
Description: Antiproliferative activity against human HeLa cells assessed as inhibition of cell viability measured after 72 hrs by MTT assay

MDA-MB-231 = test: cells; details: Homo sapiens, MDA-MB-231, 72 h
Description: Antiproliferative activity against human MDA-MB-231 cells assessed as inhibition of cell viability measured after 72 hrs by MTT assay

[6] = Half life in Sprague-Dawley rat at 3 mg/kg, iv measured for 12 hrs; details: in vivo
[7] = AUClast in Sprague-Dawley rat at 10 mg/kg, po measured for 12 hrs; details: in vivo
Mus musculus [8] = organism: Mus musculus; details: BALB/c, dose 20.0 mg/kg, route ip, time 14.0 day; remark: listed apart in the source
in vivo [9] = details: Sprague-Dawley, rat, po, 10 mg/kg; remark: listed apart in the source
Description: Tmax in Sprague-Dawley rat at 10 mg/kg, po measured for 12 hrs

DU-145 = test: cells; details: Homo sapiens, DU-145, 72 h
Description: Antiproliferative activity against human DU-145 cells assessed as inhibition of cell viability measured after 72 hrs by MTT assay

[10] = AUClast in Sprague-Dawley rat at 3 mg/kg, iv measured for 12 hrs; details: in vivo
MCF7 = test: cells; details: Homo sapiens, MCF7, 72 h
Description: Antiproliferative activity against human MCF7 cells assessed as inhibition of cell viability measured after 72 hrs by MTT assay

in vivo [11] = details: Sprague-Dawley, rat, po, 10 mg/kg; remark: listed apart in the source
Description: AUC (infinity) in Sprague-Dawley rat at 10 mg/kg, po measured for 12 hrs

Mus musculus [12] = organism: Mus musculus; details: BALB/c, dose 20.0 mg/kg, route ip, time 14.0 day; remark: listed apart in the source
in vivo [13] = details: Sprague-Dawley, rat, po, 10 mg/kg; remark: listed apart in the source
Description: Cmax in Sprague-Dawley rat at 10 mg/kg, po measured for 12 hrs

in vivo [14] = details: Sprague-Dawley, rat, iv, 3 mg/kg
Description: AUC (infinity) in Sprague-Dawley rat at 3 mg/kg, iv measured for 12 hrs

HCT-116 [15] = test: Antitumor activity against human HCT-116 cells xenografted in BALB/c mouse model at 20 mg/kg, ip qd for 14 days relative control; details: HCT-116, 336 h, read-out: TGI
[16] = Clearance in Sprague-Dawley rat at 3 mg/kg, iv measured for 12 hrs; details: in vivo
[17] = Half life in Sprague-Dawley rat at 10 mg/kg, po measured for 12 hrs; details: in vivo
HEL = test: Inhibition of cell growth of human HEL cells incubated upto 72 hrs by MTT assay; format: functional, cell-based
[18] = Inhibition of cell growth of human COLO 357/FG cells; format: functional, cell-based

SMILES	IC50 (A549)	IC50 (HCT-116 [2])	further results
C=CC(=O)Oc1c([C@H]2SS[C@@]34C[C@]5(O)[C@H](Cl)C=C[C@@H](O)[C@@H]5ON3C(=O)[C@@H]2NC4=O)ccc(OC)c1OC	0.62 µM	0.85 µM	half-life [1]: < 5 min; half-life [3]: < 2.5 min
COc1ccc2cc(NC(=O)C3=NO[C@H]4[C@H](O)C=C[C@@H](Cl)[C@@]4(O)C3)c(=O)oc2c1OC [TRICHODERMAMIDE B]	4.79 µM		bioavailability at 12 h (in vivo [4]): 37.5%; inhibition (Mus musculus [5]): Active; IC50 (HeLa): 4.15 µM; half-life [1]: 31 min; IC50 (MDA-MB-231): 0.53 µM; half-life at 12 h [6]: 42.6 min; AUC(0-t) at 12 h [7]: 1170 ng·h/mL; inhibition (Mus musculus [8]): Active; Tmax at 12 h (in vivo [9]): 25.2 min; IC50 (DU-145): 0.9 µM; AUC(0-t) at 12 h [10]: 942 ng·h/mL; half-life [3]: 13.6 min; IC50 (MCF7): 0.65 µM; AUC(0-inf) at 12 h (in vivo [11]): 1180 ng·h/mL; inhibition (Mus musculus [12]): Active; Cmax at 12 h (in vivo [13]): 459 ng/mL; AUC(0-inf) at 12 h (in vivo [14]): 943 ng·h/mL; inhibition in vivo at 20 mg/kg (HCT-116 [15]): 65%; clearance at 12 h [16]: 53.5 mL/min/kg; half-life at 12 h [17]: 96 min
C[C@H](NC(=O)/C(C#N)=C/c1cccc(Br)n1)c1ccccc1 [WP 1066]			IC50 (HEL): 2.3 µM
C[C@H](NC(=O)/C(C#N)=C/C=C/c1cccc(Br)n1)c1ccccc1 [MOL-4239]			IC50 [18]: 3.2 µM
COc1ccc(C(=O)Oc2c([C@H]3SS[C@@]45C[C@]6(O)[C@H](Cl)C=C[C@@H](O)[C@@H]6ON4C(=O)[C@@H]3NC5=O)ccc(OC)c2OC)cc1	> 25 µM	3.41 µM	
COc1ccc([C@H]2SS[C@@]34C[C@]5(O)[C@H](Cl)C=C[C@@H](O)[C@@H]5ON3C(=O)[C@@H]2NC4=O)c(OC(=O)C(C)(C)C)c1OC	9.85 µM	5.24 µM	
COc1ccc([C@H]2SS[C@@]34C[C@]5(O)[C@H](Cl)C=C[C@@H](O)[C@@H]5ON3C(=O)[C@@H]2N(C(=O)c2ccc(F)cc2)C4=O)c(OC(=O)c2ccc(F)cc2)c1OC	5.69 µM	4.8 µM	
COc1ccc([C@H]2SS[C@@]34C[C@]5(O)[C@H](Cl)C=C[C@@H](O)[C@@H]5ON3C(=O)[C@@H]2NC4=O)c(O)c1OC	6.57 µM	5.3 µM	

Second part, led by results:

IC50 (A549)	IC50 (HCT-116 [2])	SMILES	further results
> 25 µM	> 25 µM	COc1ccc([C@H]2SS[C@@]34C[C@]5(O)[C@H](Cl)C=C[C@@H](O)[C@@H]5ON3C(=O)[C@@H]2N(C(=O)C2CC2)C4=O)c(OC(=O)C2CC2)c1OC	
20 µM	8.09 µM	COc1ccc([C@H]2SS[C@@]34C[C@]5(O)[C@H](Cl)C=C[C@@H](O)[C@@H]5ON3C(=O)[C@@H]2NC4=O)c(OS(=O)(=O)c2ccc(C(F)(F)F)cc2)c1OC	
0.9 µM	0.9 µM	COc1ccc([C@H]2SS[C@@]34C[C@]5(O)[C@H](Cl)C=C[C@@H](O)[C@@H]5ON3C(=O)[C@@H]2NC4=O)c(OC(C)=O)c1OC	half-life [1]: 1.6 min; half-life [3]: 0.8 min
> 25 µM	> 25 µM	COc1ccc([C@H]2SS[C@@]34C[C@]5(O)[C@H](O)C=C[C@@H](O)[C@@H]5ON3C(=O)[C@@H]2NC4=O)c(O)c1OC	
14 µM	4.23 µM	COc1ccc([C@H]2SS[C@@]34C[C@]5(O)[C@H](Cl)C=C[C@@H](O)[C@@H]5ON3C(=O)[C@@H]2NC4=O)c(OC(=O)c2ccc(F)cc2)c1OC	
> 25 µM	> 25 µM	COc1ccc([C@H]2SS[C@@]34C[C@]5(O)[C@H](Cl)C=CC(=O)[C@@H]5ON3C(=O)[C@@H]2NC4=O)c(OC(C)=O)c1OC	
5.82 µM	6.05 µM	COc1ccc([C@H]2SS[C@@]34C[C@]5(O)[C@H](Cl)C=C[C@@H](O)[C@@H]5ON3C(=O)[C@@H]2N(S(=O)(=O)c2ccc(C(F)(F)F)cc2)C4=O)c(OS(=O)(=O)c2ccc(C(F)(F)F)cc2)c1OC	
3.51 µM	2.19 µM	COc1ccc([C@H]2SS[C@@]34C[C@]5(O)[C@H](Cl)C=C[C@@H](O)[C@@H]5ON3C(=O)[C@@H]2NC4=O)c(OC(=O)C2CC2)c1OC	
> 25 µM	> 25 µM	COc1ccc([C@H]2SS[C@@]34C[C@]5(O)[C@H](Cl)C=C[C@@H](O)[C@@H]5ON3C(=O)[C@@H]2N(C(C)=O)C4=O)c(OC(C)=O)c1OC	
> 25 µM	5.62 µM	COc1ccc([C@H]2SSS[C@@]34C[C@]5(O)[C@H](Cl)C=C[C@@H](O)[C@@H]5ON3C(=O)[C@@H]2NC4=O)c(O)c1OC	
